Columns and labels:
[1] = tested on: S. cerevisiae strain BY4741; test: Toxicity of cannabinoids and cannabinoid glycosides in S. cerevisiae (final OD600); assay type: cell-based; conditions: 3% ethanol; for Final OD600 of S. cerevisiae: 72 h; for toxicity to yeast (final OD600 after 72 h): YP media, 2% glucose, 30° C., concentration range tested
Experimental: It is well known that cannabinoids are toxic to microbes, and it is thought that these compounds are produced by cannabis plants as a defense mechanism against infection. […] Product toxicity in microbial strains engineered to produce cannabinoids will hinder high-level production of these molecules, glycosylating these molecules can be used to detoxify them and facilitate higher production titers in engineered microbial strains. […] Cells were inoculated to a starting OD600 of 0.1 and incubated at 30° C. and 200 RPM and the final OD600 was measured after 72 h.

[2] = In vitro glycosyl transferase performance, purified enzymes, % conversion of cannabinoids to cannabinoid glycosides; assay type: biochemical; conditions: acceptor CBD, UDP-Glucose
How it was run: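 His-tagged glycosyl transferases expressed in E. coli XJb (DE3) were Ni-affinity purified. Cannabinoids (in methanol) were incubated with enzyme, UDP-sugar and alkaline phosphatase without shaking at 30 °C for 24 h. Products confirmed by LC-MS/QTOF; % conversion derived from substrate decrease and glycoside peak areas against authentic standards.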

Row | SMILES | Final OD600 of S. cerevisiae ([1]; 100 μM substrate added) | Final OD600 of S. cerevisiae ([1]; 200 μM substrate added) | Final OD600 of S. cerevisiae ([1]; 400 μM substrate added) | Final OD600 of S. cerevisiae ([1]; 800 μM substrate added) | toxicity to yeast (final OD600 after 72 h) [1] | Conversion % (CBD to the glycoside) ([2]; enzyme PL-214(Cs73Y_GA)) | Conversion % (CBD to the glycoside) ([2]; enzyme PL-159(Pt88G_GA), in vitro 30° C. 24 h)
1 | C=C(C)[C@@H]1CCC(C)=C[C@H]1c1c(O)cc(CCCCC)cc1O [CBD, cannabidiol, reference compound] | 9.3 | 8.2 | 6.7 | 4.7 | toxic to yeast | – | –
2 | C=C(C)[C@@H]1CCC(C)=C[C@H]1c1c(O[C@@H]2O[C@H](CO)[C@@H](O)[C@H](O)[C@H]2O)cc(CCCCC)cc1O[C@@H]1O[C@H](CO)[C@@H](O)[C@H](O)[C@H]1O [OB6, CBD-1′-O-β-D-glucosyl-3′-O-β-D-glucoside] | 9.1 | 8.8 | 9.5 | 8.8 | non-toxic at the concentration range tested | 57.5% | –
3 | C=C(C)[C@@H]1CCC(C)=C[C@H]1c1c(O)cc(CCCCC)cc1O[C@@H]1O[C@H](CO)[C@@H](O)[C@H](O)[C@H]1O [OB1, CBD-1′-O-β-D-glucoside] | – | – | – | – | – | – | 75%

From US20220290200A1, “GENETICALLY MODIFIED HOST CELLS PRODUCING GLYCOSYLATED CANNABINOIDS” (OCTARINE BIO IVS, priority 2019, published 2022)
